What was measured:
[1] = test system: MT-4 cells; experiment: Toxicity for MT-4 cells (growth inhibition); format: cell-based, human; settings: concentrations up to 1 mM
[2] = test system: HIV; experiment: Inhibition of HIV cytopathic toxicity in MT-4 cells (MTS cell viability); format: cell-based; settings: virus from pNL4-3 at 100×TCID50, 7 days, MTS assay (FIG. 3)
Method: The ability of B-darunavir to inhibit the cytopathic toxicity of HIV was determined by standard methods (11). Briefly, both human lymphocyte cell line MT-4 and plasmid pNL4-3, which directs the production of infectious virions (12), were obtained from the NIH AIDS Reagent Program. […] Then, MT-4 cells were transfected with plasmid pNL4-3. Maximal virus production was detected on Day 6 post-transfection. Viral inhibition assays were conducted with 25,000 MT-4 cells in 200 μL of RPMI medium containing fetal bovine serum (10% v/v). Infections were conducted with virus at 100×TCID50 by resuspending pelleted cells in 500 μL of virus-containing medium and incubating for 4 h prior to plating with B-darunavir. After 7 days, the loss of HIV cytopathic toxicity was assessed by measuring cell viability using the MTS assay from Promega (Madison, Wis.).

[3] = target: T1, HIV-1 protease (Human immunodeficiency virus type 1 group M subtype B, UniProt P03367, C567A/C595A/L533I/L563I/Q507K); experiment: biochemical
T1 construct: Double-stranded, linear DNA encoding HIV-1 protease; 8xHis (self-cleavable) (N, cleaved yes); made in house
Method: This peptide was used as a fluorogenic substrate for HIV protease by monitoring the fluorescence of the Edans group (5-((2-aminoethyl)amino)naphthalene-1-sulfonic acid) upon substrate hydrolysis and separation from the quenching Dabcyl group (4-((4-(dimethylamino)phenyl)azo)benzoic acid, succinimidyl ester. [6] Substrate was dissolved at 1 mM by sonication in DMF containing TFA (0.1% v/v). Stock solutions of each putative HIV protease inhibitor were generated by dissolving the inhibitor in DMF to a concentration of 50 mM and diluting in DMF to ˜100×stocks of the final assay concentrations. Assays were performed in 50 mM sodium acetate buffer, pH 5.0, containing NaCl (100 mM). Wells in a microtiter plate were charged initially with inhibitor (various concentrations) and substrate (final concentration: 10 μM). HIV protease was then added (final concentration: 50-150 μM). Reaction velocities in the assay solutions (total volume: 200 μL) were measured in quadruplicate at 7-9 inhibitor concentrations including no-inhibitor and no-enzyme controls.

| SMILES | inhibition of the growth of MT-4 cells (toxicity) [1] | concentration that inhibits the toxicity of HIV for human lymphocytes [2] | Ki [3] |
| --- | --- | --- | --- |
| CC(C)CN(C[C@@H](O)[C@H](Cc1ccccc1)NC(=O)O[C@H]1CO[C@H]2OCC[C@H]21)S(=O)(=O)c1ccc(B(O)O)cc1 [B-Darunavir (9)] | not to cause a significant inhibition of the growth of MT-4 cells | ≥ 100 nM |  |
| CC(C)CN(C[C@@H](O)[C@H](Cc1ccccc1)NC(=O)O[C@H]1CCOC1)S(=O)(=O)c1ccc(B(O)O)cc1 [B-Amprenavir (6)] |  |  | 2.1 ± 0.3 pM |
